Each structure is given as a SMILES string.

Data set [1] concerns patients with at least one eye with dry AMD and GA. Put plainly: Phase 2 trial (NCT03891875): low-luminance best-corrected visual acuity (LL BCVA). Conditions: week 48. Format: in vivo, human. The protocol:
(§1) Study design. […] (Allingham 2022; Mettu 2022).
Patients—Key inclusion criteria. The original protocol specified that adults ≥55 years of age with one eye with dry AMD and GA were eligible for study entry. However, a subsequent amendment to the protocol limited inclusion to patients with noncentral GA. Noncentral GA and area was determined primarily by fundus autofluorescence (FAF) and all noncentral GA lesions were required to be ≥150 μm from foveal center with preserved outer retinal structural details, as confirmed by the central reading center (BIRC, Boston MA). Noncentral GA was required to be ≥0.05 mm^2 and ≤10.16 mm^2 in size, and reside completely within the FAF 30- or 35-degree image. […] The fellow eye was allowed to have AMD with or without GA, MNV, central GA, or no pathology.
(§2) Study objectives and endpoints. The primary efficacy endpoints were changes from baseline in LL BCVA and in square root converted GA area as measured by OCT. Secondary efficacy endpoints included changes in ellipsoid zone integrity, categorical changes from baseline in LL-BCVA, changes from baseline in LL reading acuity (LLRA), BCVA, and GA area as measured by FAF. Additional predefined endpoints included change in center 1-mm and 2-mm mean EZ-RPE thickness, National Eye Institute Visual Function Questionnaire (VFQ-39) score, RA at standard light, visual function by the Low-Luminance Questionnaire (LLQ). For efficacy endpoints, the unit of analysis was study eye; in cases where both eyes were eligible for analysis, the study eye was the eye with the worse LL BCVA as determined at baseline (right eye was the study eye for equal LL BCVA). Ellipsoid zone integrity was measured as previously described on OCT utilizing a machine learning enhanced multi-layer segmentation platform that provided panmacular assessment of the EZ and RPE location (Sirici, et al., Ophthamol Surg Lasers Imaging Retina, 2022; Itoh, et al, Br J Ophthamol, 2016).
Statistical analysis. Safety and efficacy variables were summarized descriptively. […] Patients were analyzed according to the actual treatment received. […]

The test system is the same in data set [2]. Put plainly: Example 2: macular area of photoreceptor loss (tEZa) over time, linear mixed effects model. Format: in vivo, human. On the procedure:
Data for this example was collected as part of the clinical study described above in Example 1. […] The primary analysis of rate of change in the macular area of photoreceptor loss over time was conducted using a linear mixed effects model assuming time as continuous and linear. […] Correlation between the repeated measurements of the same subject were accounted for by allowing an unstructured covariance matrix for the residuals. The outcome was the change in macular area of photoreceptor loss from baseline to each time point (time points being t=0, t=12 weeks, t=24 weeks, t=36 weeks and t=48 weeks) during the treatment period through week 48.

For data set [3] the test system is unchanged. Put plainly: Phase 2 trial: ellipsoid zone integrity (tEZa, pEZa) and GA on OCT. Format: in vivo, human.
From the text: as §1, §2
Statistical analysis. Safety and efficacy variables were summarized descriptively. […] Patients were analyzed according to the actual treatment received.
For continuous data, a mixed model for repeated measures was used for each eye separately (study eye), with fixed effects for treatment arm, study visit, the treatment arm-by-visit interaction, baseline as a covariate, a baseline-by-visit interaction, a random effect for subject, using an unstructured covariance structure. The primary time point for analysis was week 48 (end of treatment visit) and the mITT population was the primary analysis population using observed data. A family-wise alpha level of 0.1 was maintained for the primary endpoint family, using Hochberg's procedure at the primary time point of 48 weeks. […] Otherwise, the endpoint with the smaller p-value of the two was considered statistically significant, if statistically significant at the 0.05 (two-sided) level of significance.

For data set [4] the following is noted: general statement on formulation.
The test system of data set [5] is patients with at least one eye with dry AMD and GA. On the procedure: Study design. In this Phase 2, randomized, placebo-controlled, double-masked, multicenter, safety and efficacy trial (ClinicalTrials.gov identifier NCT03891875), patients with at least one eye with dry AMD and GA were included. Visit 1 (screening visit) was performed no more than 14 days before the baseline visit (visit 2, day 1) (FIG. 1). […] (Allingham 2022; Mettu 2022). Patients were treated for 48 weeks, with assessments at day 1 and weeks 4, 8, 12, 24, 36, and 48 (visits 2 to 8) plus a final safety follow-up visit 4 weeks after the last day of study treatment (week 52; visit 9). Patient diaries and vial counts were used and reviewed to verify compliance.
Safety/tolerability evaluations included assessment of the incidence and severity of adverse events/adverse device effects, incidence of conversion to MNV, changes from baseline in vital sign measurements, electrocardiograms, clinical evaluations, clinical laboratory evaluations, slit lamp examination, and dilated fundus examination.
Statistical analysis. Safety and efficacy variables were summarized descriptively. The safety population included all patients receiving ≥1 dose of investigational product. […] Patients were analyzed according to the actual treatment received. A sample size of 180 patients provides ≥80% power to detect a 5-letter (1-line) change from baseline mean difference in LL BCVA between drug and placebo, assuming a standard deviation of 11 letters, at a two-sided alpha-level of 0.10, and proves approximately 80% power to detect a 30% difference in the change from baseline in square root transformed total GA area by OCT between drug and placebo, assuming a standard deviation of 0.2 mm/year, and an average change of 0.33 mm/year, at a two-sided alpha-level of 0.1.

The mark [6] stands for this setting: clinical study, rate of growth of photoreceptor loss.
The mark [7] stands for this setting: Table 1, 117 randomized to elamipretide.

For the compound `Cc1cc(O)cc(C)c1C[C@H](NC(=O)[C@H](N)CCCNC(=N)N)C(=O)N[C@@H](CCCCN)C(=O)N[C@@H](Cc1ccccc1)C(N)=O` (stereo in doubt) [elamipretide, H-D-Arg-2′,6′Dmt-Lys-Phe-NH2], the “least-squares (LS) mean changes from baseline in LL BCVA” value in data set [1] (primary endpoint, 40 mg subcutaneous once daily, mITT, P=0.49 vs placebo) is reported as −3.0 letters. Besides, the “patients experiencing a ≥2-line gain (≥10 letter) in LL BCVA” value in data set [1] (40 mg subcutaneous once daily, P=0.0404 vs placebo) was found to be 14.6%. In addition, the “percentage of patients experiencing a >1-line gain” value in data set [1] (LL BCVA, vs placebo) was “higher compared to placebo”. Further, the “mean rate of macular photoreceptor loss compared with the untreated group” value in data set [2] (FIG. 3, MMRM, weeks 12, 24, 36 and 48) is given as “reduced mean rate of macular photoreceptor loss”. For the same compound, in data set [2] (FIG. 3, change in tEZa from baseline, weeks 12 to 48, 40 mg subcutaneous once daily vs untreated), the “decrease of the growth of photoreceptor loss” value was “about 50%”. Also, in data set [2] (setting [6]), the “clinical benefit in subjects who commenced therapy before developing measurable geographic atrophy (GA)” value is on record as “experienced clinical benefit” and the “clinical benefit in subjects with non-central GA” value is reported as “experienced clinical benefit”. Moreover, in data set [3] (LS mean change baseline to week 48), the “reduction in progression of pEZa relative to placebo” value is 47%. For the same compound, the “reduction in progression of tEZa relative to placebo” value in data set [3] (LS mean change baseline to week 48, macular percentage of tEZa) was 43%. Besides, the “progression of GA area relative to the baseline boundary of total EZ attenuation” value in data set [3] (during the trial, elamipretide treated arm) is reported as “GA area did not progress to the baseline boundary of total EZ attenuation”. In addition, the “growth of partial EZ attenuation area during the trial” value in data set [3] (elamipretide arm, placebo arm 35%) is listed as 14%. Further, the “growth of total EZ attenuation area (mm^2) during the trial” value in data set [3] (elamipretide arm, placebo arm 52%) was determined as 24%. For the same compound, in data set [3] (post-hoc analysis), the “rate of progression of the EZ-GA gap” value is “slower rate of progression”. The “LS mean change from baseline to week 48 for macular percentage of tEZa (EZ-RPE thickness of 0 μm)” value in data set [3] (week 48, 40 mg subcutaneous once daily, P=0.0034 vs placebo) was 3.69%. Further, the “LS mean change from baseline to week 48 for pEZa (EZ-RPE thickness≤20 μm)” value in data set [3] (week 48, 40 mg subcutaneous once daily, P=0.0040 vs placebo) is reported as 4.10%. In addition, the water solubility entry in data set [4] is given as “highly water soluble”. In data set [5] (setting [7]), the “Early discontinuation: Adverse event” value is 10 (8.5) n (%), the “Early discontinuation: Withdrawal by subject” value is reported as 20 (17.1) n (%) and the “Subjects leaving study early” value was 34 (29.1) n (%). Moreover, the “patients who discontinued the study early (percent)” value in data set [5] (of n=117 randomized) is listed as 29%.

Source of the values: patent US20250302909A1, “METHODS FOR THE TREATMENT OF AGE-RELATED MACULAR DEGENERATION” (Stealth BioTherapeutics Inc., priority 2024, published 2025).
